Values joined by “and” are separate entries in the source; they are usually repeats but may differ in a detail not shown here. Equal values may be shown once. “Also recorded” adds a separate entry of the source.
What was measured:
[1] = system: subjects with geographic atrophy (GA) secondary to AMD; assay: Phase 1b single-dose dose-escalation intravitreal trial in geographic atrophy; format: in vivo, human
Procedure: To evaluate the safety and tolerability of a single-dose intravitreal (IVT) injection of 1 mg/0.1 mL and 2 mg/0.1 mL Fludrocortisone acetate (FCA) in subjects with geographic atrophy (GA) secondary to Age-Related Macular Degeneration (AMD).
Methods: This was a two-part dose-escalation prospective study. Part-1 involved a single participant treated with 1 mg/0.1 ml and monitored up to 28-days before being reviewed by a safety review committee. Two subsequent participants were then dosed with the same dose. Part-2 involved a single participant dosed with 2 mg/0.1 ml and monitored up to 28-days when a further 5 participants were dosed. All participants were followed up for 6-months after baseline.
A full ophthalmic assessment was performed at study visits which included GA area, best-corrected visual acuity (BCVA), low-luminance BCVA and intra-ocular pressure (IOP). Adverse events (AE) were reported from the first dose of FCA until the end-of-study visit.
This single-centre, phase 1b prospective, open-labeled, single-dose, dose-escalation clinical trial was conducted on 9 participants enrolled at a single site between August 2019 to April 2021. All patients were followed up for 6 months after baseline. Ethics approval was obtained before commencement and the trial was listed on the Australian and New Zealand Clinical Trial Registry (accessible via www.anzctr.org.au; ANZCTR no. 12618001308280). An independent data and safety committee provided oversight of the clinical trial. This study adhered to the tenets of the Declaration of Helsinki. Informed consent was obtained from all participants before enrolment into the study.
Fludrocortisone acetate was formulated for intravitreal administration as a powder solution for injection to ensure long-term stability similar to other cortico-steroids (15). Vials contained 10 mg of FCA powder and were reconstituted with sterile sodium chloride solution (0.9%) according to the appropriate dosage prior to injection.
Inclusion criteria referring the study eye were as follows: diagnosis of GA secondary to AMD confirmed using fundus autofluorescence (FAF) imaging, GA area between ≥1.9 and ≤17 mm2 (1 and 7 disc areas (DA) respectively), best corrected visual acuity (BCVA) of 24 letters or better using Early Treatment Diabetic Retinopathy Study (ETDRS) charts.
A full ophthalmic assessment was performed at each study visit which included GA area assessed through FAF imaging, BCVA, lower-luminance BCVA (LL-BCVA) and intra-ocular pressure (IOP). Participants were assessed at screening, baseline, day 1, day 7, day 14, day 28, day 60, day 90 and day 150 (end of study). Blood and urine samples were collected for safety analysis at screening, baseline, day 7, day 28 and day 150.
Part 1 of the study involved a single participant treated with 1 mg/0.1 ml FCA to assess safety and tolerability. This participant was followed-up for 28 days before the results were reviewed by an independent data safety monitoring committee (DSMB). Subsequent to approval by the DSMB, a further 2 participants were treated with 1 mg/0.1 ml FCA and followed-up for a further 28 days after treatment before commencement of part 2.
Part 2 involved a single dose of 2 mg/0.1 ml of FCA in a single participant and followed-up for 28 days like part 1. The DSMB reviewed the results prior to enrolment of the remaining 5 participants.
Fundus auto-fluorescence was captured using Heidelberg Spectralis (Heidelberg Engineering, Heidelberg, Germany). The assessment of GA size and progression was performed using FAF was performed by 2 graders (T.H and E.C.) in a blinded manner using Heidelberg region finder software version 2.6.2.0 (FIG. 1), a semi-automated program used to quantify atrophic areas. Baseline FAF images were defined and used to assess subsequent visits using the region finder software. In cases where there was a discrepancy of more than 20% between the two graders, a third grader (A.C.) evaluated the images. […]

ARPE19 cells = assay: MTT assay, cell viability of ARPE19 cells; format: cell-based, human
Source text: The immortalised retinal cells used were as follows: MIO-M1 cells (Muller cell-derived; Müller 1 Moorefields, Institute of Ophthalmology, Dr A. Limb, Institute of Ophthalmology, University College, UK); ARPE19 (RPE-derived; ATCC CRL-2302, American Tissue Culture Collection, VA, USA); and 661W cells (photoreceptor-like derived; kindly gifted by Dr Muayyad R. Al-Ubaidi, Department of Cell Biology, University of Oklahoma Health Sciences Centre, Oklahoma City, OK, USA). Cells were authenticated and validated from Cell Bank Australia.
The immortalised retinal cell lines MIO-M1, 661W and ARPE19 were used to undertake the MTT assay to assess cell metabolic activity, based on the cell's availability of NAPDH. Treatments included exposure to one of FA (10-0.01 μg/μl, provided by Professor Ben Boyd, Monash University, Australia), TA (10-0.01 μg/p, Honeywell, USA) and Dexamethasone (10-0.0001 μg/μl, Sigma-Aldrich, MO, USA). All corticosteroids used in vitro were dissolved in 20% dimethyl sulfoxide (DMSO) (Sigma-Aldrich, MO, USA) and ultrapure endotoxin 0.1M PBS (Thermo Fisher Scientific, MA, USA). At the 12-hour time point following addition of the corticosteroid, 10p of MTT reagent (Roche, Switzerland) was added to each well. To protect against light, plates were wrapped in foil and stored in the dark at 37° C. for 4 hours at 5.0% CO2. Cells were monitored using a bright field Zeiss Axiovert 200 inverted microscope (Carl Zeiss Meditec, Dublin, CA. USA) for formation of insoluble purple formazan precipitate crystals in viable cells. Subsequently 100p of MTT solubilisation solution was added and once again incubated in darkness at 37° C., 5.0% CO2 for 24 hours. Quantification of the MTT assay was performed by measuring the absorbance at 570 nm using Tecan Infinite® 200 PRO (Tecan, Mannedorf, Switzerland).

[2] = fellow (uninjected) eye of treated participants, day 150

CC(=O)OCC(=O)[C@@]1(O)CC[C@H]2[C@@H]3CCC4=CC(=O)CC[C@]4(C)[C@@]3(F)[C@@H](O)C[C@@]21C [FA, 9-α-Fluoro-11 β. 17 α, 21-trihydroxy-4-pregnene-3, 20 dione acetate]
loss of BCVA letters in the initial pilot participant ([1]; 1 mg/ml, day 14, one participant, deemed most likely unrelated by the DSMB): 22 letters | adverse event in one participant ([1]; 2 mg/ml, after day 90, study eye, resolved after 1 week): nasal subconjunctival haemorrhage | other adverse events throughout the study ([1]; all 9 participants): No other adverse events | systemic adverse event ([1]; dose escalation study, 9 participants): no systemic adverse event | BCVA mean change from baseline, fellow eye [1, 2]: 4.88 ± 8.37 letters | IOP mean change from baseline, fellow eye [1, 2]: −0.625 ± 4.24 mmHg | LLVA mean change from baseline, fellow eye [1, 2]: 4.5 ± 11.49 letters | GA area mean change from baseline, fellow eye ([1]; fellow (uninjected) eye of treated participants, over 6 months, listed as FCA): 0.62 mm^2 and 0.62 ± 4.49 mm^2 | clinical safety and tolerability ([1]; intravitreal, patients with GA secondary to AMD): clinically safe and well-tolerated | serious AEs (ocular or systemic) ([1]; single IVT 1 mg/0.1 ml or 2 mg/0.1 ml, 9 participants, 6 months): no serious AEs | cataract development / lens opacity ([1]; single IVT 1 or 2 mg/0.1 ml, 6 months follow-up, no formal lens grading, listed as FCA): no participants required/underwent cataract surgery; also recorded: not observed; also recorded: no evidence | increase of IOP ([1]; single IVT 1 or 2 mg/0.1 ml, study eye, 6 months follow-up, listed as FCA): No significant increases; also recorded: not observed; also recorded: did not increase; also recorded: no evidence | IOP mean change from baseline, study eye ([1]; study eye, day 150 compared to baseline, listed as FCA): −0.25 mmHg and −0.25 ± 4.06 mmHg | GA area mean change from baseline, study eye ([1]; study eye, over 6 months, FAF region finder, listed as FCA): 0.5 mm^2 and 0.5 ± 5.69 mm^2 | changes in body temperature, heart rate, systolic or diastolic blood pressure ([1]; throughout the study): no significant changes | viability of ARPE19 cells at 1 μg/μl (ARPE19 cells; 1 μg/μl): does not significantly alter cell viability | viability of ARPE-19 cells (MTT assay) (ARPE19 cells; 10-0.01 μg/μl, 12 h, compared to DMSO-only group): do not induce toxicity; also recorded: no significant effect

From patent publication US20250387410A1, “TREATMENT OF ANTI-VEGF REFRACTORY OPHTHALMIC RETINAL EYE CONDITIONS” (Eye Co Pty Ltd., priority 2022, published 2025)
